Entries after “also recorded” stand apart in the source; their conditions may differ.
Legend:
Type in all cases: binding, rat
mAb 35 [1] = experiment: Western blot of peptide-IChBD fusion proteins probed with mAb 35; set-up: key to mAb 35, fold-change in binding relative to Torpedo 39MIR: ‘—’ denotes no binding; conditions: for mAb 35, fold-change in binding relative to Torpedo 39MIR: Table 1, Western blot of FIG. 5, Torpedo 39MIR single mutants; for mAb 35 binding, result in words: Western blot; for mAb 35 binding relative to binding to the Torpedo 39MIR: FIG. 5 Western blots, Torpedo 39MIR single mutants
Protocol: (§1) Chitin beads adsorbed with peptide-IChBD fusion proteins were run on an SDS-PAGE gel and transferred to a nitrocellulose membrane and assayed with the four mAbs.
(§2) Chitin beads adsorbed with peptide-IChBD fusion proteins were run on an SDS-PAGE gel and transferred to a nitrocellulose membrane and assayed with the five mAbs.
(§3) To explore the effects of individual amino acid substitutions between the Torpedo and the human AChR MIR mimics, eight peptides were prepared, each with an amino acid substituted from the human sequence into the Torpedo sequence. The single amino acid substitutions in the Torpedo MIR were: N10K (SEQ ID NO:11), L12F (SEQ ID NO:12), R66K (SEQ ID NO:13), A70D (SEQ ID NO:14), I75V (SEQ ID NO:15), R79H (SEQ ID NO:16), D111Q (SEQ ID NO:17), and K115H (SEQ ID NO:18).

mAb 132A [2] = experiment: Western blot of peptide-IChBD fusion proteins probed with mAb 132A; conditions: for mAb 132A binding relative to binding to the Torpedo 39MIR: FIG. 5 Western blots, Torpedo 39MIR single mutants; for mAb 132A, fold-change in binding relative to Torpedo 39MIR: Table 1, Western blot of FIG. 5, Torpedo 39MIR single mutants; for mAb 132A binding, result in words: Western blot
Protocol: as §1, §2, §3

mAb 198 = experiment: Western blot of peptide-IChBD fusion proteins probed with mAb 198; conditions: for mAb 198 binding relative to Torpedo 39MIR: FIG. 5 Western blots, Torpedo 39MIR single mutants; for mAb 198 binding compared to its binding to the human 39MIR: human 39MIR mutants, relative to human 39MIR; for mAb 198 binding, result in words: Western blot
Text: as §1, §2
The Torpedo (SEQ ID NO:9) and human (SEQ ID NO:8) 39MIRs were made by joining the α(1-12), α(65-79), and α(110-115) segments of their respective a subunits with GS linkers. These two MIR mimics were expressed in E. coli as fusion proteins with an IChBD tag to permit peptide collection on chitin beads. These two peptides differ from each other by eight amino acids (FIG. 2). Both mimics were probed with mAb 198. mAb 198, which was derived from rats that had been immunized with human muscle AChR, is a MIR-directed mAb that binds mammalian as well as Torpedo MIR (13,21). It was also able to passively transfer EAMG to rats and binds to both native assembled AChR and to α-subunit fragments in Western blots (22,23). mAb 198 binds to the Torpedo and human MIR peptide mimics in Western blots (FIG. 3). However, mAb 198 binds to the Torpedo mimic about 50 times more strongly than to the human MIR mimic (FIG. 3).
as §3

mAb 334 = experiment: Western blot of peptide-IChBD fusion proteins probed with mAb 334; conditions: for mAb 334 binding relative to Torpedo 39MIR: FIG. 5 Western blots, Torpedo 39MIR single mutants; for mAb 334, fold-change in binding relative to Torpedo 39MIR: Table 1, Western blot of FIG. 5, Torpedo 39MIR single mutants
Protocol: as §2, §3

mAb 35 [3] = experiment: Western blot of peptide-IChBD fusion proteins probed with mAb 35; set-up: key to mAb 35, fold-change in binding relative to Torpedo 39MIR: ‘—’ denotes no binding; conditions: for mAb 35 binding compared to the Torpedo 39MIR peptide: single point mutated human 39MIR peptides
mAb 132A [4] = experiment: Western blot of peptide-IChBD fusion proteins probed with mAb 132A; set-up: key to mAb 132A, fold-change in binding relative to Torpedo 39MIR: ‘—’ denotes no binding
[5] = Table 1, Western blot of FIG. 5, Torpedo 39MIR single mutants
[6] = Table 3, single-substitution human 39MIR mutants
[7] = Table 2, Western blot of FIG. 7, human 39MIR multiple mutants

Sequence	mAb 35, fold-change in binding relative to Torpedo 39MIR (mAb 35 [1])	mAb 35 binding, result in words (mAb 35 [1])	mAb 132A binding relative to binding to the Torpedo 39MIR (mAb 132A [2])	mAb 132A, fold-change in binding relative to Torpedo 39MIR (mAb 132A [2])	mAb 198, fold-change in binding relative to Torpedo 39MIR (mAb 198; [5])	mAb 334 binding relative to Torpedo 39MIR (mAb 334)	mAb 334, fold-change in binding relative to Torpedo 39MIR (mAb 334)	mAb 35 binding relative to binding to the Torpedo 39MIR (mAb 35 [1])	other results
SEHETRLVANLLGGGSLRWNPADYGGIKKIRGSLDYTGH (synthetic main immunogenic region (MIR) peptide) [Mutant K115H, Torpedo 39MIR single mutant (K115H)]	—	did not bind; also recorded: completely abolished	0.40 ×	0.40 fold-change	1.07 fold-change	0.42 ×	0.42 fold-change		
SEHETRLVAKLLGGGSLRWNPADYGGIKKIRGSLDYTGK (synthetic main immunogenic region (MIR) peptide) [Mutant N10K, Torpedo 39MIR single mutant (N10K)]	0.29 fold-change		0.03 ×	0.03 fold-change	0.82 fold-change	0.59 ×	0.59 fold-change	0.29 ×	mAb 198 binding relative to Torpedo 39MIR (mAb 198): 0.82 ×
SEHETRLVANLLGGGSLRWNPADYGGVKKIRGSLDYTGK (synthetic main immunogenic region (MIR) peptide) [Mutant I75V, Torpedo 39MIR single mutant (I75V)]	—	did not bind	0.07 ×	0.06 fold-change	0.16 fold-change	0.03 ×	0.03 fold-change		mAb 198 binding relative to Torpedo 39MIR (mAb 198): 0.16 ×
SEHETRLVAKLFGGGSLKWNPDDYGGIKKIHGSLQYTGH (synthetic main immunogenic region (MIR) peptide) [Mutant V75I, Human 39MIR single mutant (V75I)]		restored mAb 35 binding							mAb 198, fold-change in binding relative to Torpedo 39MIR (mAb 198; [6]): 0.65 fold-change; mAb 198 binding compared to its binding to the human 39MIR (mAb 198): 40 ×; mAb 35, fold-change in binding relative to Torpedo 39MIR (mAb 35 [3]; [6]): 0.03 fold-change; mAb 35 binding compared to the Torpedo 39MIR peptide (mAb 35 [3]): 0.03; mAb 132A, fold-change in binding relative to Torpedo 39MIR (mAb 132A [4]; [6]): —
SEHETRLVANLFGGGSLRWNPADYGGIKKIRGSLDYTGK (synthetic main immunogenic region (MIR) peptide) [Mutant L12F, Torpedo 39MIR single mutant (L12F)]	1.42 fold-change		1.10 ×	1.10 fold-change	0.90 fold-change	0.88 ×	0.88 fold-change	1.42 ×	
SEHETRLVAKLFGGGSLKWNPADYGGVKKIHGSLQYTGH (synthetic main immunogenic region (MIR) peptide) [Mutant D70A, Human 39MIR single mutant (D70A)]		failed to restore mAb 35 binding							mAb 198, fold-change in binding relative to Torpedo 39MIR (mAb 198; [6]): 0.02 fold-change; mAb 198 binding, result in words (mAb 198): comparable to binding to human 39MIR; mAb 35, fold-change in binding relative to Torpedo 39MIR (mAb 35 [3]; [6]): —; mAb 132A, fold-change in binding relative to Torpedo 39MIR (mAb 132A [4]; [6]): —
SEHETRLVAKLFGGGSLKWNPDDYGGIKKIHGSLDYTGH (synthetic main immunogenic region (MIR) peptide) [V75I/Q111D, Human MIR double mutant (V75I/Q111D)]		restored binding							mAb 132A binding, result in words (mAb 132A [2]): restored binding; mAb 198, fold-change in binding relative to Torpedo 39MIR (mAb 198; [7]): 2.71 fold-change; mAb 198 binding, result in words (mAb 198): restored binding; mAb 35, fold-change in binding relative to Torpedo 39MIR (mAb 35 [3]; [7]): 0.92 fold-change; mAb 132A, fold-change in binding relative to Torpedo 39MIR (mAb 132A [4]; [7]): 3.34 fold-change
SEHETRLVANLLGGGSLRWNPADYGGIKKIRGSLQYTGK (synthetic main immunogenic region (MIR) peptide) [Mutant D111Q, Torpedo 39MIR single mutant (D111Q)]	—	did not bind	0.07 ×	0.07 fold-change	0.16 fold-change	0.02 ×	0.02 fold-change		mAb 198 binding relative to Torpedo 39MIR (mAb 198): 0.16 ×
SEHETRLVAKLFGGGSLKWNPDDYGGVKKIHGSLDYTGH [Q111D] (synthetic main immunogenic region (MIR) peptide) [Mutant Q111D, Human 39MIR single mutant (Q111D)]		restored mAb 35 binding							mAb 198, fold-change in binding relative to Torpedo 39MIR (mAb 198; [6]): 0.59 fold-change; mAb 198 binding compared to its binding to the human 39MIR (mAb 198): 35.7 ×; mAb 35, fold-change in binding relative to Torpedo 39MIR (mAb 35 [3]; [6]): 0.06 fold-change; mAb 35 binding compared to the Torpedo 39MIR peptide (mAb 35 [3]): 0.06; mAb 132A, fold-change in binding relative to Torpedo 39MIR (mAb 132A [4]; [6]): —
SEHETRLVANLFGGGSLKWNPDDYGGVKKIHGSLQYTGH (synthetic main immunogenic region (MIR) peptide) [Mutant K10N, Human 39MIR single mutant (K10N)]		restored mAb 35 binding							mAb 198, fold-change in binding relative to Torpedo 39MIR (mAb 198; [6]): 0.23 fold-change; mAb 198 binding compared to its binding to the human 39MIR (mAb 198): 13 ×; mAb 35, fold-change in binding relative to Torpedo 39MIR (mAb 35 [3]; [6]): 0.01 fold-change; mAb 35 binding compared to the Torpedo 39MIR peptide (mAb 35 [3]): 0.01; mAb 132A, fold-change in binding relative to Torpedo 39MIR (mAb 132A [4]; [6]): —
SEHETRLVANLLGGGSLRWNPADYGGIKKIHGSLDYTGK (synthetic main immunogenic region (MIR) peptide) [Mutant R79H, Torpedo 39MIR single mutant (R79H)]	1.91 fold-change		1.65 ×	1.65 fold-change	0.97 fold-change	2.40 ×	2.40 fold-change	1.91 ×	
SEHETRLVANLLGGGSLKWNPADYGGIKKIRGSLDYTGK (synthetic main immunogenic region (MIR) peptide) [Mutant R66K, Torpedo 39MIR single mutant (R66K)]	0.62 fold-change		1.55 ×	1.55 fold-change	1.03 fold-change	2.75 ×	2.75 fold-change	0.62 ×	
SEHETRLVAKLFGGGSLKWNPDDYGGVKKIHGSLDYTGH [rat 39 MIR] (synthetic main immunogenic region (MIR) peptide) [Mouse 39MIR; rat/mouse 39MIR homolog]		did not bind							mAb 132A binding, result in words (mAb 132A [2]): did not bind
SEHETRLVANLLGGGSLRWNPDDYGGIKKIRGSLDYTGK (synthetic main immunogenic region (MIR) peptide) [Mutant A70D, Torpedo 39MIR single mutant (A70D)]	0.93 fold-change		0.20 ×	0.20 fold-change	1.08 fold-change	1.04 ×	1.04 fold-change	0.93 ×	

From US11422132B2, “Peptides and uses thereof for diagnosing and treating myasthenia gravis” (The Regents of the University of California, priority 2016, dated 2022)
